Literature values as cited in patent US12630504B2, “Phenethylamine derivatives, compositions, and methods of use” (CYBIN IRL LIMITED, priority 2020, dated 2026).

| Structure (SMILES) | biological activity (due to extensive first-pass metabolism) | oral dose at which orally active (oral, only at high doses owing to low brain bioavailability) [mg] |
| --- | --- | --- |
| NCCc1ccc2c(c1)OCO2 [MDPEA, 3,4-methylenedioxyphenethylamine] | biologically inactive | – |
| COc1cc(CCN)cc(OC)c1OC [Mescaline, 3,4,5-trimethoxyphenethylamine] | – | ~300 |
